Drawing on ChEMBL document CHEMBL1136197, “Anilinopyrazole as selective CDK2 inhibitors: design, synthesis, biological evaluation, and X-ray crystallographic analysis” (Bioorg Med Chem Lett, 2003), this text covers IC50 for 17 compounds.

The target in assay [1] is Cyclin-dependent kinase 2 (Homo sapiens, UniProt P24941). In words: In vitro inhibition of Cyclin-dependent kinase 2 was determined.
Assay [2] addresses Cyclin-dependent kinase 1 (Homo sapiens, UniProt P06493). The assay can be described thus: Inhibition of Cyclin-dependent kinase 1.

Cyclin-dependent kinase 1, sequence (P06493 whole entry): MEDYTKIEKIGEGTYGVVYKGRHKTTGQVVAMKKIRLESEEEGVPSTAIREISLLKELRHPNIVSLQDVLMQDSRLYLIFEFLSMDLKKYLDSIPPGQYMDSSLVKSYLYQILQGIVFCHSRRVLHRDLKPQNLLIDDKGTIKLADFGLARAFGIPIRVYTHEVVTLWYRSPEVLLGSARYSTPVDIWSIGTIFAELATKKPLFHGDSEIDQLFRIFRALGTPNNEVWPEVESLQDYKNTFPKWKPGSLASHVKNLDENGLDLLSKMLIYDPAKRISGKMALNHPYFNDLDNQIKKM

`NS(=O)(=O)c1ccc(Nc2cc(-c3ccc(Br)cc3)n[nH]2)cc1`: the figures for the half-inhibitory concentration (IC50) in assay [1] and in assay [2] were 10 nM and 126 nM, respectively.

On to `NS(=O)(=O)c1ccc(Nc2cc(-c3cccc(NC(=O)Nc4cc(C(F)(F)F)ccc4F)c3)n[nH]2)cc1`, for which the IC50 in assay [1] came out at 61.6 nM; in assay [2], 794 nM.

`CS(=O)(=O)Nc1ccc(Nc2cc(-c3cccc(Br)c3)n[nH]2)cc1` registered an IC50 in assay [1] of 602 nM.

Take `NS(=O)(=O)c1ccc(Nc2cc(-c3cccc(NS(=O)(=O)c4ccccc4)c3)n[nH]2)cc1`: the half-inhibitory concentration (IC50) came out at 10.7 nM in assay [1] and 501 nM in assay [2].

`CS(=O)(=O)Nc1cccc(-c2cc(Nc3ccc(S(N)(=O)=O)cc3)[nH]n2)c1`: the 50% inhibitory concentration (IC50) in assay [1] was 10.7 nM; in assay [2], 501 nM.

In assay [1], `COc1ccc(-c2cc(Nc3ccc(S(N)(=O)=O)cc3)[nH]n2)cc1F` came in with an IC50 of 407 nM.

`Nc1cccc(-c2cc(Nc3ccc(S(N)(=O)=O)cc3)[nH]n2)c1`: the IC50 in assay [1] was 166 nM.

The compound `NS(=O)(=O)c1ccc(Nc2cc(-c3ccc(F)cc3)n[nH]2)cc1` returned a concentration for half-maximal inhibition (IC50) in assay [1] of 17.4 nM.

With `Nc1ccc(-c2cc(Nc3ccc(S(N)(=O)=O)cc3)[nH]n2)cc1`, the half-inhibitory concentration (IC50) is 0.34 nM in assay [1] and 501 nM in assay [2].

As for `CN(C)c1ccc(-c2cc(Nc3ccc(S(N)(=O)=O)cc3)[nH]n2)cc1`, in assay [1], the IC50 is > 2000 nM.

In the case of `COc1cccc(-c2cc(Nc3ccc(S(N)(=O)=O)cc3)[nH]n2)c1`, the figures for the IC50 in assay [1] and in assay [2] were 24.5 nM and 398 nM, respectively.

The compound `NS(=O)(=O)c1cccc(Nc2cc(-c3ccc(F)cc3)n[nH]2)c1` yielded an IC50 in assay [1] of 871 nM.

Regarding `NS(=O)(=O)c1ccc(Nc2cc(-c3cccc(O)c3)n[nH]2)cc1` [GW831090X], the half-inhibitory concentration (IC50) was determined as 9.1 nM in assay [1] and 398 nM in assay [2].

Take `NS(=O)(=O)c1ccc(Nc2cc(-c3cccc(N4CCOCC4)c3)n[nH]2)cc1`: the IC50 in assay [1] is 490 nM.

Regarding `NS(=O)(=O)c1ccc(Nc2cc(-c3ccc([N+](=O)[O-])cc3)n[nH]2)cc1`, it took 0.33 nM to reach half-maximal inhibition in assay [1] (IC50).

For the compound `NS(=O)(=O)c1ccc(Nc2cc(-c3ccc(O)c(F)c3)n[nH]2)cc1` [GW831091X], the IC50 in assay [1] is 12.6 nM; in assay [2], 200 nM.

Consider `NS(=O)(=O)c1ccc(Nc2cc(-c3cccc(Br)c3)n[nH]2)cc1`, for which the IC50 in assay [1] is 23.4 nM.
